This passage reports maximal response and IC50 results from the supplement of paper PMC3493320.

As a reminder, the IC50 is the midpoint of a concentration-inhibition curve.

The subject of experiment [1] is NCI-H295R. The experiment is described as follows: maximal response (efficacy) relative to DMSO (0%) and doxorubicin (-100%); higher = less growth inhibition. Conditions: 48 h.
Experiment [2] concerns NCI-H295R. Put plainly: IC50 (antiproliferative, ATP content). The settings on record: 48 h.

With `COc1cc(NCCCC(C)N)c2ncccc2c1` (stereo not drawn), in the experiment with NCI-H295R [1], the maximal response is -124%. Also, the IC50 in the experiment on NCI-H295R [2] amounted to 2.37 µM.

Turning to `Nc1ccc2cc3ccc(N)cc3nc2c1.Nc1ccc2cc3ccc(N)cc3nc2c1.O=S(=O)(O)O`, the maximal response in the experiment with NCI-H295R [1] is -138%. In the experiment on NCI-H295R [2], this compound yielded an IC50 of 18.8 µM.

For the compound `[H][C@]1(CC3)[C@]([C@H]5C[C@@H]4[C@@](C=C6)=COC6=O)(O5)[C@]4(C)CC[C@]([C@]2(C)[C@@]3([H])C[C@@H](O)CC2)1[H]`, in the experiment on NCI-H295R [1], the maximal response was -105%. This compound yielded an IC50 with NCI-H295R [2] of 6.68 µM.

For `O=S(=O)([O-])c1cc(O)c2c(N=Nc3ccc(Nc4ccccc4)c4c(S(=O)(=O)[O-])cccc34)cc(S(=O)(=O)[O-])cc2c1.[Na+].[Na+].[Na+]`, the maximal response in the experiment on NCI-H295R [1] is -73.8%. In the experiment on NCI-H295R [2], the IC50 is 11.9 µM.

For `CC1=CC(=O)c2ccccc2C1=O`, the maximal response with NCI-H295R [1] is -158%. In the experiment with NCI-H295R [2], this compound yielded an IC50 of 23.7 µM.

For the compound `[Cl-].C/[N+](C)=C1\C=C/C(C=C1)=C(\c2ccc(cc2)N(C)C)c3ccc(cc3)N(C)C`, the maximal response in the experiment on NCI-H295R [1] was -130%. Further, in the experiment on NCI-H295R [2], the half-inhibitory concentration (IC50) is 11.9 µM.

`Cc1cc(C(C#N)c2ccc(Cl)cc2)c(Cl)cc1NC(=O)c1cc(I)cc(I)c1O` (stereo not drawn): the maximal response in the experiment with NCI-H295R [1] was -130%. In the experiment with NCI-H295R [2], this compound returned an IC50 of 4.22 µM.

Consider `CN(C)C(=O)CCSC(SCCC(=O)[O-])c1cccc(/C=C/c2ccc3ccc(Cl)cc3n2)c1.[Na+]` (stereo not drawn), for which the maximal response in the experiment on NCI-H295R [1] was -77.8%. The compound also displayed an IC50 with NCI-H295R [2] of 26.6 µM.

On to `OC[C@H]1O[C@@H](n2cnc3c(S)ncnc32)[C@H](O)[C@@H]1O`, for which the maximal response in the experiment on NCI-H295R [1] is -68.2%. The same compound displayed an IC50 in the experiment on NCI-H295R [2] of 2.99 µM.

For `CC(C)(O)c1ccccc1CC[C@@H](SCC1(CC(=O)[O-])CC1)c1cccc(/C=C/c2ccc3ccc(Cl)cc3n2)c1.[Na+]`, the maximal response in the experiment on NCI-H295R [1] was -142%. For the same compound, the IC50 in the experiment on NCI-H295R [2] came out at 16.8 µM.

On to `COCC(=O)Nc1cc(Sc2ccccc2)ccc1N=C(NC(=O)OC)NC(=O)OC`, for which the maximal response with NCI-H295R [1] was -64.1%. Besides, the half-maximal inhibitory concentration (IC50) with NCI-H295R [2] was 8.41 µM.

In the case of `Oc1c(Cl)cc(Cl)c(Cl)c1Cc1c(O)c(Cl)cc(Cl)c1Cl`, the maximal response in the experiment on NCI-H295R [1] was -121%. In the experiment with NCI-H295R [2], this compound gave an IC50 of 15 µM.

As for `NC(C(C)=C2)=CC=C2/C(C1=CC=C(N)C=C1)=C3/C=CC(C=C3)=N.Cl`, in the experiment on NCI-H295R [1], the maximal response is -87.4%. This compound also gave an IC50 in the experiment with NCI-H295R [2] of 11.9 µM.

Regarding `CC[C@H]1CN2CCc3cc(OC)c(OC)cc3[C@@H]2C[C@@H]1C[C@H]1NCCc2cc(OC)c(OC)cc21`, the maximal response in the experiment on NCI-H295R [1] is -130%. This compound had an IC50 in the experiment with NCI-H295R [2] of 2.11 µM.
